Experimental data reported in US20140309276A1, “Pharmaceutical Composition Comprising a Mixture of Carboxylated Oligonucleotides” (priority 2013, published 2014).

Legend:
[1] = system: Ehrlich's ascites adenocarcinoma; test: Antitumor activity on Ehrlich's ascites adenocarcinoma in mice; type: in vivo, Barbados mice; conditions: n = 10
Experimental: The antitumor activity of the compositions were studied in models of Ehrlich's ascites carcinoma in young Barbados mice of both sexes with weights between 15-17 g (68 individuals), which were kept on a vivarium diet.
45 mice were inoculated from a mouse with adenocarcinoma using an insulin syringe with 0.1 ml ascitic fluid in the region of the liver.
Ten mice were administered Composition in liposome form (see Table 5). Ten more mice were administered the Composition substance, and ten more were administered a 0.9% solution of sodium chloride with lipids.

benzidine skin sarcoma = test: Anticancer activity on benzidine skin sarcoma in mice; type: in vivo, Barbados mice; conditions: n = 10
From the text: Composition led to a 95% degeneration of tumor cells. To confirm the in vivo antitumor activity, Composition was studied in benzidine skin sarcoma and reinjected ascites adenocarcinomas in Barbados mice. In five mice with adenocarcinomas, the distribution of the Composition liposome throughout the animals' bodies was also studied using a fluorescent probe dissolved in a phospholipid layer.
A Study of the Anticancer Activity of Composition on Benzidine Sarcoma. Before applying it to the silica gel, 7 ml of a solution of 2% benzidine and 0.9% sodium chloride was added until an opalescent suspension was formed (1 g silica gel for 5 ml NaCl solution). Twenty-five Barbados mice of both sexes with a weight of 18-20 g that were kept on a vivarium diet were administered benzidine and phorbol acetate immobilized on silica gel subcutaneously near the neck. After two weeks, 18 animals had developed tumors of different sizes in the form of a small bump on the neck near the silica gel granulomas. Each group of animals was administered the corresponding compound parenterally at a dose of 100 mcg/kg weight twice a day for two weeks, beginning at 16 days after administration of the carcinogen.

HeLa-2 cells = test: Anticancer (cytopathic) activity in a culture of HeLa-2 cells, Minimum Active Dose; type: cell-based; conditions: minimum amount causing degeneration of 90-95% of the cells; 199 medium; observed 5 days
Experimental: Anticancer activity of Composition in a cell culture was made in a culture of HeLa-2 cells. For this purpose, 2-12 mcg of Composition per ml of medium were added to the 199 medium. A culture without Composition in it was used as a control. Cultures were observed daily over the course of five days. The Minimum Active Dose (MAD) of Composition was also considered to be the minimum amount of the drug that caused a degeneration of 90-95% of the cells (Table 1.)

CC(=O)O[C@@]12CO[C@@H]1C[C@H](O)[C@@]1(C)C(=O)[C@H](O)C3=C(C)[C@@H](OC(=O)[C@H](O)[C@@H](NC(=O)OC(C)(C)C)c4ccccc4)C[C@@](O)([C@@H](OC(=O)c4ccccc4)[C@H]21)C3(C)C [Taxotere]
Time of Death of Animals after the First Injection, Average Value, Experimental Animals ([1]; in liposomes (+)): 15 ± 0.5 days
Time of Death of Animals after the First Injection, Average Value, Experimental Animals ([1]; substance without liposomes (−)): 14 ± 0.12 days
Animal Survival (benzidine skin sarcoma): 28 ± 1.1 days
MAD (Minimum Active Dose) (HeLa-2 cells): 10 µg/mL
